Some results are limits rather than exact numbers.

One assay deals with H4K16Ac in HT29 cells. Description: Immunofluorescence of H4K16Ac in HT29 cells. In kind it is cell-based, human. To be noted: 50 μM, 24 h, compared with control. On the procedure:
For IF analysis, 1 × 10^5 HT-29 cells were grown on sterile coverslips. After 24 h, cells were exposed to different compounds for 24 h. IF staining for different acetylated lysine residues of histone H3 (H3K27Ac) and H4 (H4K16Ac) were carried out on PFA-fixed cells blocked with 20% goat serum in PBS and incubated overnight at 4 °C with primary rabbit monoclonal antibodies histone H3K27Ac (D5E4, Rabbit mAb#8173) and H4K16Ac (E2B8W, Rabbit mAb#13534, Cell Signalling Technology). Primary antibodies were detected using rabbit anti-IgG secondary antibodies conjugated with Cy3 (Jackson Immunoresearch 711-165-152). DNA was stained using 0.05 μg/mL 4′,6-diamidino-2-phenylindole (DAPI). The samples were acquired using an Olympus AX70 (Olympus America Inc.) microscope. Serial Z stacks of 0.4 μm thickness were acquired, taking care to cover the entire cell volume. For quantification of fluorescence intensity signals, images of untreated or treated cells were analyzed and processed using opensource Cell Profiler 4.1.3 image analysis software (https://cellprofiler.org/) to measure fluorescence-integrated intensity values for antibody binding relating to individual cells as previously reported.[67]

A further assay deals with A549 cells. Nature of the assay: MTT cell proliferation assay, A549. In kind it is cell-based, human. To be noted: for antiproliferative activity in A549: 10, 25, 50, 100 μM; for IC50: 72 h treatment, MTT. The source says: Human commercially available AML U937, breast cancer MCF7, lung adenocarcinoma NCI-H460, H1299 and A-549, glioblastoma U251, B lymphocyte AHH1 cell lines were maintained in compete 10% foetal bovine serum (FBS,) RPMI 1640 (Euroclone, Milan, IT) medium. Human commercially available colon cancer HCT116 and HT29 lines and cervix adenocarcinoma HeLa cells were maintained in compete 10% FBS Dulbecco’s Modified Eagle Medium (DMEM) high glucose medium (Euroclone). L-Glutamine, FBS, and penicillin streptomycin mixture added to medium were obtained from Euroclone. All cell lines were cultured at 37 °C in a humidified atmosphere of 5% CO2:95% air and were tested for mycoplasma contamination routinely by RT-PCR.
For analysis of cell proliferation, cells were plated in sextuplicate on 96-well plates in complete media. After 24 h, cells were exposed to different drugs for 72 h. The inhibitory effect of different drugs was assessed by MTT (Sigma, St. Louis, MO, USA) colorimetric assays as previously reported.[67] Aqueous DMSO (0.5% v/v) was used as a control (untreated). The results are reported as “viability of drug-treated cells/viability of untreated cells” × 100 and represent the average ±SD of three independent experiments. IC50 values were using fitted by nonlinear regression using GraphPad Prism 8.0.
(In general: Tetrazolium dyes change colour on reduction, which living cells bring about.)

Another assay has as its target T1, KAT2A (Homo sapiens, UniProt Q92830).
T1 construct: human KAT2A (aa 323–837, 15 nM); purchased Reaction Biology Corporation
Nature of the assay: HotSpot KAT assay, KAT2A. It counts as biochemical. To be noted: 200 μM, NI = no inhibition; for inhibition at 200 µM: read-out: % inhibition at 200 μM KAT2A (15 nM). On the procedure: The effects of the compounds on other KATs were determined using the HotSpot KAT assay (Reaction Biology Corporation, Malvern, PA, USA) according to the supplier’s procedure. The recombinant catalytic domains of human KAT2A (aa 323–837, 15 nM), KAT2B (aa 492–658, 25 nM), KAT3B (aa 1284–1672, 1 nM), KAT6A (aa 488–778, 10 nM), KAT6B (aa 657–1069, 10 nM), and full length human KAT5 (25 nM) and KAT7 (25 nM) were used. Each enzyme was incubated with the relevant histone peptide [H3 peptide for KAT2A, KAT2B, KAT3B, KAT6A, and KAT7 (2.5–5 μM, depending on the KAT isoform); H2A peptide for KAT5 (1.25 μM); H4 peptide for KAT6B (2.5 μM)] as a substrate and radio-isotope-labeled [^3H]Acetyl-CoA (0.2–1.5 μM, depending on the KAT isoform) as an acetyl donor in the assay buffer [50 mM Tris–HCl (pH 8.0), 50 mM NaCl, 0.1 mM EDTA, 1 mM DTT, 0.1 mM PMSF, 1% DMSO] for 1 h at 30 °C in the presence or absence of various compounds (1% DMSO final) titrated in a 2-fold serial dilution starting at 200 μM. Histone peptide acetylation was assessed by liquid scintillation counting using a Tri-Carb 2800TR Liquid Scintillation Analyzer (Perkin Elmer). Experiments were performed in biological triplicates. Signal reduction compared to control was plotted (as inhibition percentage) as a function of compound concentration. In cases in which an IC50 was calculated, the values were fitted by nonlinear regression (GraphPad Prism 8.0).

The target of a further assay is T2, KAT3B (Homo sapiens, UniProt Q09472).
T2 construct: KAT3B (aa 1284–1672, 1 nM); purchased Reaction Biology Corporation
T2 sequence (Q09472 1284-1672): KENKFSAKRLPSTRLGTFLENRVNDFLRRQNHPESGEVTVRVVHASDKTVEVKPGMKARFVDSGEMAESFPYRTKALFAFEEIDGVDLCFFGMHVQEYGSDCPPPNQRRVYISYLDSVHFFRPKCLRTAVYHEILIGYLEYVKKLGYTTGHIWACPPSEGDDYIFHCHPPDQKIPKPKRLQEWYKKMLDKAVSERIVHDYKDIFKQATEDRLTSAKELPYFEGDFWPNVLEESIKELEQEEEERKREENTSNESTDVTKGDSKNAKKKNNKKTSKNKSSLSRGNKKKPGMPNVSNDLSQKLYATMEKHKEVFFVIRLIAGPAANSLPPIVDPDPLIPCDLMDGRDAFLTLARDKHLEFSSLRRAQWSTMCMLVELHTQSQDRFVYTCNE
Description: HotSpot KAT assay, KAT3B. In kind it is biochemical. As to conditions: enzyme 1 nM, NI = no inhibition at 200 μM, mean ± SD of three independent experiments; for IC50: read-out: IC50 KAT3B (1 nM).

T1 sequence (Q92830 323-837): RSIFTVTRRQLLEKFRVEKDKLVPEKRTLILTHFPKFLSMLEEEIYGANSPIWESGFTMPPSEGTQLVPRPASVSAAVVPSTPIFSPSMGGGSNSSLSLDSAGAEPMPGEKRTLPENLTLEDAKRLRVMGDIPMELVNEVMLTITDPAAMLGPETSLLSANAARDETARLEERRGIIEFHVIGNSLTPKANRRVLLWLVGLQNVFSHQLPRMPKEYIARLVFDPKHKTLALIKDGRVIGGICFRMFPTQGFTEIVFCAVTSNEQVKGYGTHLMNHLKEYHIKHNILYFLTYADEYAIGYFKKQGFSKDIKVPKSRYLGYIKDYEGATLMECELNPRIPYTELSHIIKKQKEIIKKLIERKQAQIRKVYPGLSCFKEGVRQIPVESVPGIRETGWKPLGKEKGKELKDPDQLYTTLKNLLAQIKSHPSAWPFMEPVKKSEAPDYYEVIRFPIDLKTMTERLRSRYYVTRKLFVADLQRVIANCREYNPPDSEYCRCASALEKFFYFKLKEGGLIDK

As usually defined, the inhibition is the change of the read-out against control, counted positive when it falls. Broadly, the IC50 is the concentration that gives 50% inhibition. As for `O=C(O)c1ccc(N2N=C(c3ccccc3)/C(=C/c3ccc[nH]3)C2=O)cc1` [Compound 34, (Z)-4-(4-((1H-Pyrrol-2-yl)methylene)-5-oxo-3-phenyl-4,5-dihydro-1H-pyrazol-1-yl)benzoic Acid], the “reduction in H4K16Ac signal intensity (IF)” value in the assay on H4K16Ac in HT29 cells is recorded as “more than 50%”. In the assay with A549 cells (72 h), the “antiproliferative activity in A549” value was “dose-dependent antiproliferative effects”. Further, the inhibition at 50 µM in the assay with A549 cells (Homo sapiens, A549, 50 μM, 72 h) is about 65%. In the assay with A549 cells (Homo sapiens, A549, 100 μM, 72 h), this molecule registered an inhibition at 100 µM of about 80%. Also, in the assay with A549 cells (Homo sapiens, A549), the 50% inhibitory concentration (IC50) is 33 ± 5.7 µM. On KAT2A, the “% inhibition at 200 μM KAT2A (15 nM)” value is on record as “did not inhibit” and the inhibition at 200 µM is 0%. Moreover, at KAT3B, the IC50 was over 200 µM.

As to `CC1=NN(c2ccc(C(=O)O)cc2)C(=O)/C1=C\c1ccc[nH]1` [Compound 19, (Z)-4-(4-((1H-Pyrrol-2-yl)methylene)-3-methyl-5-oxo-4,5-dihydro-1H-pyrazol-1-yl)benzoic Acid], the “reduction in H4K16Ac signal intensity (IF)” value with H4K16Ac in HT29 cells stood at 80%. Moreover, the “antiproliferative activity in A549” value in the assay on A549 cells (72 h) is “dose-dependent antiproliferative effects”. Moreover, the IC50 in the assay on A549 cells (Homo sapiens, A549) came to 41 ± 9.8 µM. For the same molecule, on KAT2A, the “% inhibition at 200 μM KAT2A (15 nM)” value is given as “did not inhibit” and the inhibition at 200 µM was determined as 0%. Further, at KAT3B, the “IC50 KAT3B (1 nM)” value was “no inhibition at 200 μM” and the IC50 is over 200 µM.

Values taken from article PMC10226132, “First-in-Class Selective Inhibitors of the Lysine Acetyltransferase KAT8” (Journal of Medicinal Chemistry, 2023).
